Test results as given in ChEMBL document CHEMBL1132004, “Antagonism of the TXA2 receptor by seratrodast: a structural approach” (Bioorg Med Chem Lett, 1999).

Assay: The pKa of the sulfonamido group of the compound
Type: physicochemical

Q: With `Cc1cccc(Nc2ccncc2S(=O)(=O)/N=C(\NC#N)N2CCCCCC2)c1` as the molecule, how does the pKa read?
A: Its pKa is 6.
